# From patent publication US20240090503A1, “FUNGICIDAL OXADIAZOLES AND THEIR MIXTURES” (FMC CORPORATION, priority 2020, published 2024)
# Marks after values point to notes of the source that are not given here.
# Legend:
# Type in all cases: in vivo
# [1] = system: Zymoseptoria tritici (the causal agent of wheat leaf blotch); assay: Test B: preventive spray on wheat seedlings, wheat leaf blotch, visual disease rating; conditions: for Test B disease control rating / pest or weed control at 250 ppm / pest or weed control at 250 µg/mL: wheat seedlings
# How it was run: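 This is a preventive test: spray application preceded Zymoseptoria tritici spore inoculation by one day. Test suspensions were in acetone/water with 250 ppm PEG400 surfactant, at the listed ppm rate. After 48 h saturated humidity at 24° C and 17 days at 20° C, visual ratings scored control from 0 to 100%.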
# [2] = system: Phakopsora pachyrhizi (the causal agent of Asian soybean rust); assay: Test A: preventive spray on soybean seedlings, Asian soybean rust, visual disease rating; conditions: for Test A disease control rating / pest or weed control at 10 ppm / pest or weed control at 250 µg/mL: soybean seedlings
# How it was run: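 Compound in acetone/water (50/50) with 250 ppm PEG400 sprayed to run-off on soybean seedlings; inoculated next day with Phakopsora pachyrhizi spores. Held 24 h at 22° C in saturated atmosphere, then 8 days in a 22° C growth chamber before visual rating as % disease control relative to controls.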
# [3] = system: Puccinia recondita f. sp. tritici (the causal agent of wheat leaf rust); assay: Test C: preventive spray on wheat seedlings, wheat leaf rust, visual disease rating; conditions: for Test C disease control rating / pest or weed control at 10 ppm / pest or weed control at 250 µg/mL: wheat seedlings
# How it was run: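 Wheat seedlings sprayed to run-off with compound in acetone/water (50/50) with 250 ppm PEG400, then inoculated with spores the following day. After 24 h saturated humidity at 20° C. and 6 days in growth chamber at 20° C., disease rated visually as % control relative to untreated controls.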
# [4] = test suspension 10 ppm, 100 = 100% disease control, 0 = no control
# [5] = Zymoseptoria tritici, 456 h, 250 ppm test suspension, 100 = 100% disease control
# [6] = Phakopsora pachyrhizi, 216 h, 10 ppm test suspension, 100 = 100% disease control, 0 = no control
# [7] = Puccinia recondita, 168 h, 10 ppm test suspension, 100 = 100% disease control, 0 = no control
# [8] = Zymoseptoria tritici, 456 h, test suspension 250 ppm
# [9] = Phakopsora pachyrhizi, 216 h, test suspension 250 ppm
# [10] = Puccinia recondita, 168 h, test suspension 250 ppm
# [11] = 10 ppm test suspension, 100 = 100% disease control, 0 = no control
# [12] = 250 ppm test suspension, 100 = 100% disease control
smiles,measurement,setting,value
O=C(c1coc(Cc2ccc(-c3noc(C(F)(F)F)n3)cc2)n1)N1CCCC1 [compound 227],Test B disease control rating,[1]; test suspension 250 ppm,99* %
same,Test A disease control rating,[2]; [4],100%
same,Test C disease control rating,[3]; test suspension 10 ppm,97%
"O=C(NCC(F)(F)F)c1csc(Cc2ccc(-c3noc(C(F)(F)F)n3)cc2)n1 [Compound 463, N-(2,2,2-trifluoroethyl)-2-[[4-[5-(trifluoromethyl)-1,2,4-oxadiazol-3-yl]phenyl]methyl]-4-thiazolecarboxamide]",pest or weed control at 250 ppm,[1]; [5],65%
same,pest or weed control at 10 ppm,[2]; [6],100%
same,pest or weed control at 10 ppm,[3]; [7],100%
N#CCNC(=O)c1ccc(Cc2ccc(-c3noc(C(F)(F)F)n3)cc2)cc1 [compound 283],Test B disease control rating,[1]; test suspension 250 ppm,0* %
same,Test A disease control rating,[2]; [4],100%
same,Test C disease control rating,[3]; test suspension 10 ppm,98%
"N#CC(Nc1ccccc1)c1ccc(-c2noc(C(F)(F)F)n2)cc1 (stereo not drawn) [Compound 13, α-(phenylamino)-4-[5-(trifluoromethyl)-1,2,4-oxadiazol-3-yl]benzeneacetonitrile]",pest or weed control at 250 µg/mL,[1]; [8],85%
same,pest or weed control at 250 µg/mL,[2]; [9],100%
same,pest or weed control at 250 µg/mL,[3]; [10],100%
FC(F)(F)c1nc(-c2ccc(OCc3cn4ccccc4n3)cc2)no1 [compound 313],Test B disease control rating,[1]; test suspension 250 ppm,14* %
same,Test A disease control rating,[2]; [4],77%
same,Test C disease control rating,[3]; test suspension 10 ppm,0%
CCOC(=O)c1nn(Cc2ccc(-c3noc(C(F)(F)F)n3)cc2)nc1Br [compound 84],Test B disease control rating,[1]; test suspension 250 ppm,66%
same,Test A disease control rating,[2]; test suspension 250 ppm,100%
same,Test C disease control rating,[3]; test suspension 250 ppm,100%
O=C(c1csc(Cc2ccc(-c3noc(C(F)(F)F)n3)cc2)n1)N1CCOCC1 [compound 487],Test B disease control rating,"[1]; 100 ppm test suspension (double asterisk), 100 = 100% disease control",98** %
same,Test A disease control rating,[2]; [11],100%
same,Test C disease control rating,[3]; [11],100%
COC(=O)c1ccc(COc2ccc(-c3noc(C(F)(F)F)n3)cc2)cc1 [compound 354],Test B disease control rating,[1]; test suspension 250 ppm,20* %
same,Test A disease control rating,[2]; [4],0%
same,Test C disease control rating,[3]; test suspension 10 ppm,0%
CCOC(=O)c1csc(Cc2ccc(-c3noc(C(F)(F)F)n3)s2)n1 [compound 201],Test B disease control rating,[1]; test suspension 250 ppm,28%
same,Test A disease control rating,[2]; test suspension 250 ppm,100%
same,Test C disease control rating,[3]; test suspension 250 ppm,100%
O=C1COCCN1Cc1ccc(-c2noc(C(F)(F)F)n2)cc1 [compound 372],Test B disease control rating,[1]; test suspension 250 ppm,99* %
same,Test A disease control rating,[2]; test suspension 250 ppm,100%
same,Test C disease control rating,[3]; test suspension 250 ppm,100%
CCCOC(=O)c1cnn(Cc2ccc(-c3noc(C(F)(F)F)n3)cc2)c1 [compound 60],Test B disease control rating,[1]; test suspension 100 ppm (** next to rating),75** %
same,Test A disease control rating,[2]; [4],100%
same,Test C disease control rating,[3]; test suspension 10 ppm,100%
CCOC(=O)C1=NOC(Cc2ccc(-c3noc(C(F)(F)F)n3)cc2)C1 (stereo not drawn) [compound 29],Test B disease control rating,[1]; test suspension 250 ppm,94* %
same,Test A disease control rating,[2]; [4],73%
same,Test C disease control rating,[3]; test suspension 10 ppm,19%
FC(F)(F)c1nc(-c2ccc(CNC3CC3)s2)no1 [compound 191],Test B disease control rating,[1]; test suspension 250 ppm,96* %
same,Test A disease control rating,[2]; test suspension 50 ppm,100%
same,Test C disease control rating,[3]; test suspension 50 ppm,100%
O=C(NCCC(F)(F)F)c1coc(COc2ccc(-c3noc(C(F)(F)F)n3)cc2)n1 [compound 467],Test B disease control rating,[1]; [12],6* %
same,Test A disease control rating,[2]; [11],97%
same,Test C disease control rating,[3]; [11],68%
"CCOC(=O)c1cnn(Cc2ccc(-c3noc(C(F)(F)F)n3)cc2)c1 [Compound 83, ethyl 1-[[4-[5-(trifluoromethyl)-1,2,4-oxadiazol-3-yl]phenyl]methyl]-1H-pyrazole-4-carboxylate]",pest or weed control at 250 µg/mL,[1]; [8],79%
same,pest or weed control at 250 µg/mL,[2]; [9],100%
same,pest or weed control at 250 µg/mL,[3]; [10],100%
CCNC(=O)c1csc(Cc2ccc(-c3noc(C(F)(F)F)n3)cc2)n1 [compound 488],Test B disease control rating,[1]; [12],99* %
same,Test A disease control rating,[2]; [11],100%
same,Test C disease control rating,[3]; [11],100%
CCNC(=O)C1=NOC(Cc2ccc(-c3noc(C(F)(F)F)n3)cc2)C1 (stereo not drawn) [compound 175],Test B disease control rating,[1]; test suspension 255 ppm,95%
same,Test A disease control rating,[2]; test suspension 255 ppm,100%
same,Test C disease control rating,[3]; test suspension 255 ppm,100%
O=c1cc(-c2noc(C(F)(F)F)n2)ccn1Cc1ccccc1F [compound 232],pest or weed control at 250 µg/mL,[1]; [8],68%
same,pest or weed control at 250 µg/mL,[2]; [9],100%
same,pest or weed control at 250 µg/mL,[3]; [10],100%
"COC(=O)c1cnn(Cc2ccc(-c3noc(C(F)(F)F)n3)cc2)c1 [Compound 21, methyl 1-[[4-[5-(trifluoromethyl)-1,2,4-oxadiazol-3-yl]phenyl]methyl]-1H-pyrazole-4-carboxylate]",pest or weed control at 100 µg/mL,"[1]; Zymoseptoria tritici, 456 h, read-out: Test B disease control rating",97%
same,pest or weed control at 10 µg/mL,"[2]; Phakopsora pachyrhizi, 216 h, read-out: Test A disease control rating",100%
same,pest or weed control at 10 µg/mL,"[3]; Puccinia recondita, 168 h, read-out: Test C disease control rating",100%
CN(C)C(=O)C1=NOC(Cn2cc(-c3noc(C(F)(F)F)n3)cn2)C1 (stereo not drawn) [compound 306],Test B disease control rating,[1]; test suspension 250 ppm,10* %
same,Test A disease control rating,[2]; test suspension 50 ppm,0%
same,Test C disease control rating,[3]; test suspension 50 ppm,0%
CC(C)NC(=O)c1coc(Cc2ccc(-c3noc(C(F)(F)F)n3)cc2)n1 [compound 259],Test B disease control rating,[1]; test suspension 250 ppm,99* %
same,Test A disease control rating,[2]; [4],100%
same,Test C disease control rating,[3]; test suspension 10 ppm,99%
N#Cc1cnn(CCCc2ccc(-c3noc(C(F)(F)F)n3)cc2)c1 [compound 359],Test B disease control rating,[1]; test suspension 250 ppm,99* %
same,Test A disease control rating,[2]; [4],100%
same,Test C disease control rating,[3]; test suspension 10 ppm,95%
FC(F)(F)c1nc(-c2ccc(Cn3nc4ccccc4n3)cc2)no1 [compound 93],Test B disease control rating,[1]; test suspension 250 ppm,39%
same,Test A disease control rating,[2]; test suspension 250 ppm,100%
same,Test C disease control rating,[3]; test suspension 250 ppm,99%
N#Cc1nn(Cc2ccc(-c3noc(C(F)(F)F)n3)s2)cc1Br [compound 76],Test B disease control rating,[1]; test suspension 270 ppm,41%
same,Test A disease control rating,[2]; test suspension 270 ppm,100%
same,Test C disease control rating,[3]; test suspension 270 ppm,99%
FC(F)(F)c1nc(-c2ccc(Cn3cccn3)cc2)no1 [compound 162],Test B disease control rating,[1]; test suspension 250 ppm,0%
same,Test A disease control rating,[2]; test suspension 250 ppm,100%
same,Test C disease control rating,[3]; test suspension 250 ppm,100%
CCCOC(=O)c1cnn(Cc2ccc(-c3noc(C(F)(F)F)n3)o2)c1 [compound 211],Test B disease control rating,[1]; test suspension 250 ppm,70* %
same,Test A disease control rating,[2]; test suspension 50 ppm,100%
same,Test C disease control rating,[3]; test suspension 50 ppm,100%
CN(C)N=Cc1cnn(Cc2ccc(-c3noc(C(F)(F)F)n3)cc2)c1 [compound 19],Test B disease control rating,[1]; test suspension 250 ppm,100%
same,Test A disease control rating,[2]; test suspension 250 ppm,100%
same,Test C disease control rating,[3]; test suspension 250 ppm,100%
"O=C(NCCF)c1coc(Cc2ccc(-c3noc(C(F)(F)F)n3)cc2)n1 [Compound 400, N-(2-fluoroethyl)-2-[[4-[5-(trifluoromethyl)-1,2,4-oxadiazol-3-yl]phenyl]methyl]-4-oxazolecarboxamide]",pest or weed control at 250 ppm,[1]; [5],99%
same,pest or weed control at 10 ppm,[2]; [6],100%
same,pest or weed control at 10 ppm,[3]; [7],100%
COCCNC(=O)c1coc(Cc2ccc(-c3noc(C(F)(F)F)n3)cc2)c1 [compound 292],Test B disease control rating,[1]; test suspension 250 ppm,96* %
same,Test A disease control rating,[2]; [4],100%
same,Test C disease control rating,[3]; test suspension 10 ppm,85%
N#Cc1ccn(Cc2ccc(-c3noc(C(F)(F)F)n3)cc2)c(=O)c1 [compound 89],Test B disease control rating,[1]; test suspension 250 ppm,83%
same,Test A disease control rating,[2]; test suspension 250 ppm,100%
same,Test C disease control rating,[3]; test suspension 250 ppm,100%
"FC(F)(F)c1nc(-c2ccc(Cn3cc(Br)cn3)s2)no1 [Compound 71, 3-[5-[(4-bromo-1H-pyrazol-1-yl)methyl]-2-thienyl]-5-(trifluoromethyl)-1,2,4-oxadiazole]",pest or weed control at 250 µg/mL,[1]; [8],36%
same,pest or weed control at 250 µg/mL,[2]; [9],100%
same,pest or weed control at 250 µg/mL,[3]; [10],100%
CCOC(=O)c1cnn(Cn2nc(-c3noc(C(F)(F)F)n3)ccc2=O)c1 [compound 346],Test B disease control rating,[1]; test suspension 250 ppm,0* %
same,Test A disease control rating,[2]; [4],0%
same,Test C disease control rating,[3]; test suspension 10 ppm,0%
FC(F)(F)c1nc(-c2ccc(Cn3ccc4cccnc43)cc2)no1 [compound 86],Test B disease control rating,[1]; test suspension 250 ppm,89%
same,Test A disease control rating,[2]; test suspension 250 ppm,100%
same,Test C disease control rating,[3]; test suspension 250 ppm,100%
CCOC(=O)c1csc(Cc2ccc(-c3noc(C(F)(F)F)n3)cc2)n1 [compound 344],Test B disease control rating,[1]; test suspension 250 ppm,96* %
same,Test A disease control rating,[2]; [4],100%
same,Test C disease control rating,[3]; test suspension 10 ppm,93%
CCOC(=O)c1cnn(Cc2ccc(-c3noc(C(F)(F)F)n3)s2)c1 [compound 70],Test B disease control rating,[1]; test suspension 255 ppm,96%
same,Test A disease control rating,[2]; test suspension 255 ppm,100%
same,Test C disease control rating,[3]; test suspension 255 ppm,100%
Cc1cc(C)n(Cc2ccc(-c3noc(C(F)(F)F)n3)cc2)n1 [compound 145],Test B disease control rating,[1]; test suspension 250 ppm,0%
same,Test A disease control rating,[2]; test suspension 250 ppm,100%
same,Test C disease control rating,[3]; test suspension 250 ppm,100%
O=C(O)c1coc(Cc2ccc(-c3noc(C(F)(F)F)n3)cc2)n1 [compound 253],Test B disease control rating,[1]; test suspension 250 ppm,46* %
same,Test A disease control rating,[2]; [4],98%
same,Test C disease control rating,[3]; test suspension 10 ppm,74%
